Where two headings read alike, the source gives them in different places.
Key:
[1] = system: MDA-MB-231; conditions: breast cancer MDA-MB-231, read-out: IC50 ± SD MDA-MB-231, cited from earlier work
[2] = system: SNB-19; conditions: glioblastoma SNB-19, read-out: IC50 ± SD SNB-19, cited from earlier work
[3] = system: C-32; conditions: melanoma C-32, read-out: IC50 ± SD C-32, cited from earlier work
[4] = system: HFF-1; conditions: normal fibroblasts HFF-1, cited from earlier work; for IC50 ± SD HFF-1: Neg: negative in the concentration used, footnote a; for IC50: footnote b, read-out: IC50 ± SD HFF-1
[5] = system: MDA-MB-231; assay: antiproliferative activity (WST-1), breast cancer MDA-MB-231; assay type: cell-based, human; conditions: for SI (IC50 HFF-1/IC50 cancer line) MDA-MB-231: selectivity index, HFF-1 vs MDA-MB-231; for IC50: Homo sapiens, breast cancer MDA-MB-231, 72 h, WST-1, Neg: negative in the concentration used, read-out: IC50 ± SD MDA-MB-231
Method: (§1) Biological activity of the tested compounds was assessed in vitro using cultured cell lines: melanoma C-32 (ATCC, Rockville, MD, USA), glioblastoma SNB-19 (DSMZ, Braunschweig, Germany), breast cancer MDA-MB-231 (ATCC, Rockville, MD, USA), and normal human fibroblasts derived from foreskin HFF-1 (ATCC, Rockville, MD, USA). Cell cultures were maintained using DMEM (Lonza, Basel, Switzerland) supplemented with 10% fetal bovine serum (FBS) (Biological Industries Cromwell, CT, USA) and a mixture of penicillin (10,000 U/mL) and streptomycin (10 mg/mL) (Lonza, Basel, Switzerland).
(§2) Cells were cultured using 96-well plates (Nunc Thermo Fisher Scientific, Waltham, MA, USA). Cells were seeded (5 × 10^3 cells/well) and incubated for 24 h in a standard incubator (37 °C, 5% CO2, relative humidity 95%). Subsequently, the medium was replaced with a fresh aliquot containing an examined compound (0.01; 0.05; 0.1; 0.5; 1; 5; 10; 50; 100 µg/mL), and cells were further incubated for another 72 h. Upon the conclusion of incubation, a CVDE test (Aniara, West Chester, OH, USA) using crystal violet was performed to assess the relative number of cells in the culture. A WST-1 test (Roche) was performed to examine the metabolic activity of cells and test for the presence of LDH in the medium (Roche Diagnostics GmbH, Mannheim, Germany), allowing for the assessment of the relative number of dead cells (i.e., cytotoxicity of the examined compound). UVM340 microplate readers (BIOGENET, Józefów, Poland) were used to read absorbance values.
(§3) WST-1 colorimetric assay for cell proliferation (Roche Diagnostics GmbH, Mannheim, Germany, reagent kit cat. 11644807001) is based on the viable cells’ ability to cleave the bright red-colored stable tetrazolium salt WST-1 to dark red soluble formazan. This bioreduction occurs under the influence of mitochondrial dehydrogenases (depends mostly on production of NAD(P)H in viable cells). The amount of formazan dye formed correlates directly with the number of metabolically active cells in the culture and is measured by absorbance (λ = 450 nm) following 1 h incubation of cells with the reagent.

[6] = system: SNB-19; assay: antiproliferative activity (WST-1), glioblastoma SNB-19; assay type: cell-based, human; conditions: for SI (IC50 HFF-1/IC50 cancer line) SNB-19: selectivity index, HFF-1 vs SNB-19; for IC50: Homo sapiens, glioblastoma SNB-19, 72 h, WST-1, Neg: negative in the concentration used, read-out: IC50 ± SD SNB-19
Method: as §1, §2, §3

[7] = system: C-32; assay: antiproliferative activity (WST-1), melanoma C-32; assay type: cell-based, human; conditions: for SI (IC50 HFF-1/IC50 cancer line) C-32: selectivity index, HFF-1 vs C-32; for IC50: Homo sapiens, C32, melanoma C-32, 72 h, WST-1, Neg: negative in the concentration used, read-out: IC50 ± SD C-32
Method: as §1, §2, §3

[8] = system: HFF-1; assay: antiproliferative activity (WST-1), normal fibroblasts HFF-1; assay type: cell-based, human; conditions: Homo sapiens, normal fibroblasts HFF-1, 72 h, Neg: negative in the concentration used, read-out: IC50 ± SD HFF-1
Method: as §1, §2, §3

| SMILES | IC50 ([1]; footnote a) [µM] | IC50 ([2]; footnote a) [µM] | IC50 ([3]; footnote a) [µM] | IC50 ± SD HFF-1 [4] | SI (IC50 HFF-1/IC50 cancer line) MDA-MB-231 [5] | IC50 ([1]; footnote b) [µM] | IC50 ([2]; footnote b) [µM] | IC50 ([3]; footnote b) [µM] | SI (IC50 HFF-1/IC50 cancer line) SNB-19 [6] | SI (IC50 HFF-1/IC50 cancer line) C-32 [7] | IC50 [4] [µM] | IC50 [8] [µM] | IC50 [5] [µM] | IC50 [6] [µM] | IC50 [7] [µM] |
| --- | --- | --- | --- | --- | --- | --- | --- | --- | --- | --- | --- | --- | --- | --- | --- |
| CCCOC1=C(OCCC)C(=O)c2ncccc2C1=O [Compound 16] | 3 ± 0.3 | 0.7 ± 0.02 | 1.1 ± 0.1 | Neg |  |  |  |  |  |  |  |  |  |  |  |
| C#CCOC1=C(OCC#C)C(=O)c2ncccc2C1=O [Compound 18] |  |  |  |  | 7.00 | 1.8 ± 0.1 | 21.7 ± 1.1 | 0.3 ± 0.1 | 0.58 | 50.40 | 12.6 ± 0.9 |  |  |  |  |
| CCCOC1=C(Cl)C(=O)c2cccnc2C1=O [Compound 7] | 22.4 ± 2.7 | 0.4 ± 0.1 | 0.2 ± 0.1 | Neg |  |  |  |  |  |  |  |  |  |  |  |
| C#CCOC1=C(Cl)C(=O)c2cccnc2C1=O [Compound 9] |  |  |  |  | 0.15 | 21.4 ± 3.4 | 20.4 ± 0.2 | 0.32 ± 0.1 | 0.16 | 10.31 | 3.3 ± 0.3 |  |  |  |  |
| C=CCOC1=C(OCC=C)C(=O)c2ncccc2C1=O [Compound 17] | 12.6 ± 2.7 | 0.2 ± 0.1 | 1.5 ± 0.1 | Neg |  |  |  |  |  |  |  |  |  |  |  |
| C=CCOC1=C(Cl)C(=O)c2cccnc2C1=O [Compound 8] | 17.2 ± 2.8 | 0.3 ± 0.1 | 0.28 ± 0.1 | Neg |  |  |  |  |  |  |  |  |  |  |  |
| O=C1C2=C(OCC#C/C=C\C#CCO2)C(=O)c2ncccc21 [Compound 27, 8-Octen-6,10-diynyl-1,4-dioxocyclododeca[2,3-g]-5,8-quinolinedione] |  |  |  |  |  |  |  |  | 0.41 | 0.27 |  | 13 ± 3.4 | 25.1 ± 2.4 | 31.5 ± 2.5 | 48.4 ± 8.9 |
| C#CCOC1=C(OCC#C)C(=O)c2nc(C)ccc2C1=O [Compound 21, 2-Methyl-6,7-di(2-propynoxy)-5,8-qunolinedione] |  |  |  |  | 0.63 |  |  |  | 0.59 | 0.69 |  | 14.5 ± 2.6 | 23.2 ± 1.5 | 24.5 ± 1.1 | 21.1 ± 1.2 |

Reference: paper PMC6155387, “Alkoxy and Enediyne Derivatives Containing 1,4-Benzoquinone Subunits—Synthesis and Antitumor Activity” (Molecules : A Journal of Synthetic Chemistry and Natural …, 2017)
